Test results published in patent publication US11226337B2, “Chemoproteomic profiling of protein electrophilic and oxidative post-translational modifications” (Zenagem, LLC, priority 2017, dated 2022).

Experiments:
Assay in all cases: SILAC RP-ABPP
Type in all cases: cell-based
[1] = target: T1, NEU1 Sialidase1 (Q99519) (Homo sapiens, UniProt Q99519); conditions: SILAC H/L, MDA-MB-231
T1 construct: endogenous in cells; host or cells: HEK293T or MDA-MB-231
Protocol: (§1) For MS-based experiments, labelling was performed in a similar manner as described above in Example 2, maintaining the same concentrations of probes. Modifications to this protocol included using isotopically ‘light’ and ‘heavy’ SILAC cells that were also grown to near complete confluence prior to treatment. Isotopically light cells were treated with the non-clickable hydrazine probe (at the same concentration as the probe in ‘enrichment’ experiments) or the probe in the presence of 10-fold excess non-clickable hydrazine probe as a competitor (in ‘competition’ experiments). Isotopically heavy cells were treated with the probe for both types of experiments. These treatments were performed in non-SILAC media. Following treatments, cells were washed with cold PBS to remove the probe-containing media, harvested by scraping, collected by centrifugation (1,400 g, 3 min, 4° C.), washed again by resuspension in cold PBS and frozen as pellets at −80° C. until use.
(§2) The fractionated equimolar mixture of heavy and light soluble proteomes (1-1.5 mg) was diluted to 1 mL in PBS. Click reactions were scaled accordingly (except for biotin-azide) to maintain final concentrations of 0.1 mM TBTA, 1 mM CuSO4, 100 μM biotin-azide (10 mM in DMSO) and 1 mM TCEP. The mixture was vortexed and placed on a rotator at ambient temperature for 1 hour. Sequential addition of and mixture with pre-chilled methanol (MeOH, 2 mL), chloroform (CHCl3, 0.5 mL) and PBS (1 mL) on ice quenched the reaction. The precipitated proteome was centrifuged (5,000 g, 10 min, 4° C.) to fractionate the protein interphase from the organic and aqueous solvent layers. The protein pellet was washed with cold 1:1 MeOH:CHCl3 (3×1 mL), mildly sonicated in cold 4:1 MeOH:CHCl3 (2.5 mL) and pelleted once more by centrifugation (5,000 g, 10 min, 4° C.) to ensure click reagents were efficiently removed.
(§3) Heavy and light parent ion chromatograms associated with successfully identified peptides were extracted and compared using CIMAGE software as previously described^69. At least one ion of a co-eluting heavy-light pair must be accurately identified from a fragmentation event that occurred within the retention time window (±10 min) of parent ion elution. To ensure that the correct pair of peaks is quantified, chromatograms are extracted within a 10 ppm error tolerance of the predicted m/z, the signal-to-noise ratio must be >2.5 and the ‘co-elution correlation score’ and ‘envelope correlation score’ must have R^2 values ≥0.8. In addition, peptides detected as ‘singletons,’ where only the heavy ion of a peptide pair was identified, but for which passed all other filtering parameters, are given a default assigned ratio of ‘20,’ which is defined as any measured ratio that is ≥20.
(§4) To further eliminate false positives and any stochastic variability in the data, protein ratios were then determined by the median peptide ratio derived from three or more unique quantified peptides. Protein ratios that complied with these criteria from a single experiment were then averaged with ratios acquired from ≥3 replicates to provide final values for each type of experiment in both cell lines with both probes. […] Most importantly, there are no robustly measured ratios for proteins identified as probe 1 targets that had measured ratios of ˜1 with probe 2. Probe targets in HEK293T and MDA-MB-231 cells represent data combined from ≥3 independent biological replicates with each cell type performed with several independent batches of synthesized probes over a period of almost two years.
(§5) Analogous experiments were also performed with the aryl hydrazine probe 2 (1 mM, 0.5 hour), which furnished a larger list of high-reactivity proteins (33 in total; Table 3) that contained several of the targets of probe 1 (compared in Table 4), as well as additional proteins that may reflect an expanded chemical reactivity for probe 2.

[2] = target: T2, CAT Catalase (P04040) (Homo sapiens, UniProt P04040); conditions: SILAC H/L, MDA-MB-231
T2 construct: endogenous in cells; host or cells: HEK293T or MDA-MB-231
Protocol: as §1, §2, §3, §4, §5

[3] = target: T3, XPNPEP3 Probable XaaPro aminopeptidase 3 (Q9NQH7) (Homo sapiens, UniProt Q9NQH7); conditions: SILAC H/L, HEK293T
T3 construct: In Situ Labelling of Cells with Hydrazine Probes for MS Experiments; endogenous in cells; host or cells: HEK293T and/or MDA-MB-231
Protocol: as §1, §2, §3, §4, §5

[4] = target: T4, PLBD2 Putative phospholipase Blike 2 (Q8NHP8) (Homo sapiens, UniProt Q8NHP8); conditions: SILAC H/L, MDA-MB-231
T4 construct: endogenous in cells; host or cells: HEK293T or MDA-MB-231
Protocol: as §1, §2, §3, §4, §5

[5] = target: T5, HEXB Betahexosaminidase subunit beta (P07686) (Homo sapiens, UniProt P07686); conditions: SILAC H/L, MDA-MB-231
T5 construct: endogenous in cells; host or cells: HEK293T or MDA-MB-231
Protocol: as §1, §2, §3, §4, §5

[6] = target: T6, CMBL Carboxymethylenebutenolidase homolog (Q96DG6) (Homo sapiens, UniProt Q96DG6); conditions: SILAC H/L, HEK293T
T6 construct: In Situ Labelling of Cells with Hydrazine Probes for MS Experiments; endogenous in cells; host or cells: HEK293T and/or MDA-MB-231
Protocol: as §1, §2, §3, §4, §5

[7] = target: T7, aminotransferase, mitoch (O15382) (Homo sapiens, UniProt O15382); conditions: SILAC H/L, MDA-MB-231
T7 construct: endogenous in cells; host or cells: HEK293T or MDA-MB-231
Protocol: as §1, §2, §3, §4, §5

[8] = target: T8, KDM5C Lysinespecific demethylase 5C (P41229) (Homo sapiens, UniProt P41229); conditions: SILAC H/L, HEK293T
T8 construct: In Situ Labelling of Cells with Hydrazine Probes for MS Experiments; endogenous in cells; host or cells: HEK293T and/or MDA-MB-231
Protocol: as §1, §2, §3, §4, §5

[9] = target: T9, MINA MYCinduced nuclear antigen (Q8IUF8) (Homo sapiens, UniProt Q8IUF8); conditions: SILAC H/L, HEK293T
T9 construct: In Situ Labelling of Cells with Hydrazine Probes for MS Experiments; endogenous in cells; host or cells: HEK293T and/or MDA-MB-231
Protocol: as §1, §2, §3, §4, §5

[10] = target: T10, TTC38 Tetratricopeptide repeat protein 38 (Q5R3I4) (Homo sapiens, UniProt Q5R3I4); conditions: SILAC H/L, HEK293T
T10 construct: In Situ Labelling of Cells with Hydrazine Probes for MS Experiments; endogenous in cells; host or cells: HEK293T and/or MDA-MB-231
Protocol: as §1, §2, §3, §4, §5

[11] = target: T11, P4HA2 Prolyl 4hydroxylase subunit alpha2 (O15460) (Homo sapiens, UniProt O15460); conditions: SILAC H/L, MDA-MB-231
T11 construct: endogenous in cells; host or cells: HEK293T or MDA-MB-231
Protocol: as §1, §2, §3, §4, §5

[12] = target: T12, CYP27A1 Sterol 26hydroxylase, mitochondrial (Q02318) (Homo sapiens, UniProt Q02318); conditions: SILAC H/L, MDA-MB-231
T12 construct: endogenous in cells; host or cells: HEK293T or MDA-MB-231
Protocol: as §1, §2, §3, §4, §5

[13] = target: T13, NAGA AlphaNacetylgalactosaminidase (P17050) (Homo sapiens, UniProt P17050); conditions: SILAC H/L, MDA-MB-231
T13 construct: endogenous in cells; host or cells: HEK293T or MDA-MB-231
Protocol: as §1, §2, §3, §4, §5

[14] = target: T14, CTSS Cathepsin S (P25774) (Homo sapiens, UniProt P25774); conditions: SILAC H/L, MDA-MB-231
T14 construct: endogenous in cells; host or cells: HEK293T or MDA-MB-231
Protocol: as §1, §2, §3, §4, §5

T8 sequence (P41229 whole entry): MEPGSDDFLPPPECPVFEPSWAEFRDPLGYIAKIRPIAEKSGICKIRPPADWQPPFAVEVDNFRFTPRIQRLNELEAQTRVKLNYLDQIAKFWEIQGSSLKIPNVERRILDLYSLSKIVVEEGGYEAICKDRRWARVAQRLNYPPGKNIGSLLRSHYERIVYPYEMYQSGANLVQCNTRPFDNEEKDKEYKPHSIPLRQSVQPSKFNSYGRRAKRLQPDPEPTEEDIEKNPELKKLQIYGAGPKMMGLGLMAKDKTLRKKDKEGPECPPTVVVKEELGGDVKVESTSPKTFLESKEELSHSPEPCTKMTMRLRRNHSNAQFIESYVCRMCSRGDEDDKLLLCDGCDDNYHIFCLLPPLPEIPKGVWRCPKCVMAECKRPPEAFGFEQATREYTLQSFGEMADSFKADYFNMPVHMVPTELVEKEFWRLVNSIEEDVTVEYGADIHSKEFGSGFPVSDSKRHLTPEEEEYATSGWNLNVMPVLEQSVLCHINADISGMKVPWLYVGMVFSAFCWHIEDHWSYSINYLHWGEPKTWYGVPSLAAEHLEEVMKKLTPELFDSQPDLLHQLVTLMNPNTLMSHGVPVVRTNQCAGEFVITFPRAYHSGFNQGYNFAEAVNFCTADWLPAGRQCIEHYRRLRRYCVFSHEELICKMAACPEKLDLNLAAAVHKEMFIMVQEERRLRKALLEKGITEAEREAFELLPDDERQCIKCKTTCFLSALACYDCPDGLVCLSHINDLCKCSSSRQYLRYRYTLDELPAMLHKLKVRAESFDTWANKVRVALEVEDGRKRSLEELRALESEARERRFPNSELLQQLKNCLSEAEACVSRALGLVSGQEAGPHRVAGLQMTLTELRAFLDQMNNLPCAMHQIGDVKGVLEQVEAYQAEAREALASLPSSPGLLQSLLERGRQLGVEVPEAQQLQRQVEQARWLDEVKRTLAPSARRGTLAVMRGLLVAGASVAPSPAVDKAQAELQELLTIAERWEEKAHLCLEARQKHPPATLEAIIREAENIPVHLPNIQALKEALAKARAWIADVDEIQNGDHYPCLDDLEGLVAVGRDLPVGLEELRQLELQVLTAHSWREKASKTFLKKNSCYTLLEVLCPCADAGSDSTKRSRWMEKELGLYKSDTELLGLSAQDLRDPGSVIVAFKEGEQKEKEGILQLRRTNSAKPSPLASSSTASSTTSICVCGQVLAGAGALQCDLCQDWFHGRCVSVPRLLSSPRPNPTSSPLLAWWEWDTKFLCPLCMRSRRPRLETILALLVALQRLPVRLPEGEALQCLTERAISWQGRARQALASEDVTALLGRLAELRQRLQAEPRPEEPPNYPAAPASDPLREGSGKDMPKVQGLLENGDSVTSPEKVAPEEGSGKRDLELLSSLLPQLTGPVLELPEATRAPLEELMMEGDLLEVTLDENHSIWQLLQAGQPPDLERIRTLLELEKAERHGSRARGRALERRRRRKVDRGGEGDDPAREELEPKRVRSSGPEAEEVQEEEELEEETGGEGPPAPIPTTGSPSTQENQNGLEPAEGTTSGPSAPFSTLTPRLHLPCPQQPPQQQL
T14 sequence (P25774 115-331): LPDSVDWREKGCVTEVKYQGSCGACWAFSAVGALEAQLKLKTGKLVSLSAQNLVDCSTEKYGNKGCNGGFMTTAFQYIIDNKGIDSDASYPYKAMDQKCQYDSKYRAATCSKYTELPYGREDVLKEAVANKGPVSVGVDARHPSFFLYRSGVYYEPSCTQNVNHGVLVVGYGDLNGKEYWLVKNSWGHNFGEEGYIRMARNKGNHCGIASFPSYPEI
T13 sequence (P17050 18-411): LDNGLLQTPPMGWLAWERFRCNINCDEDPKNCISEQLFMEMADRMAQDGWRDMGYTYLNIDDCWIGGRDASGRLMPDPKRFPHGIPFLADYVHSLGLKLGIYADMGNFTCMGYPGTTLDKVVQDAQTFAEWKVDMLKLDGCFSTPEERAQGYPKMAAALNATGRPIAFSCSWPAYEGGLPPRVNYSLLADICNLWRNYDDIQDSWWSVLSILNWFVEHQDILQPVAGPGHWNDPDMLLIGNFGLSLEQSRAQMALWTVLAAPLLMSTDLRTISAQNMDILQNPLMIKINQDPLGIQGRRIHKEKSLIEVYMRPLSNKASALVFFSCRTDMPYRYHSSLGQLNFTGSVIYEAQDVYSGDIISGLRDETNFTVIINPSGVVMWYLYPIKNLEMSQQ
T9 sequence (Q8IUF8 whole entry): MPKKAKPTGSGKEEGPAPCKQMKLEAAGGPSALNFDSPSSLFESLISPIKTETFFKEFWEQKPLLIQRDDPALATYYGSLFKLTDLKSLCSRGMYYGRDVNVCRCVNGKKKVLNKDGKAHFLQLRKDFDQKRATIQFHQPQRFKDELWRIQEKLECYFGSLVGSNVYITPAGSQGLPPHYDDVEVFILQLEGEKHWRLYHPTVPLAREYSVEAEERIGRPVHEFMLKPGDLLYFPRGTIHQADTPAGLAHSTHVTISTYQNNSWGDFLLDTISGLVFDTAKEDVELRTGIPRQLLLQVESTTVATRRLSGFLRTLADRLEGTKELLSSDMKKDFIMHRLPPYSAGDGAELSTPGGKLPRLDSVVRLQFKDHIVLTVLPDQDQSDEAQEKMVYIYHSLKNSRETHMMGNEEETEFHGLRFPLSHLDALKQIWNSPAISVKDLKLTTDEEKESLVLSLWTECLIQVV
T10 sequence (Q5R3I4 whole entry): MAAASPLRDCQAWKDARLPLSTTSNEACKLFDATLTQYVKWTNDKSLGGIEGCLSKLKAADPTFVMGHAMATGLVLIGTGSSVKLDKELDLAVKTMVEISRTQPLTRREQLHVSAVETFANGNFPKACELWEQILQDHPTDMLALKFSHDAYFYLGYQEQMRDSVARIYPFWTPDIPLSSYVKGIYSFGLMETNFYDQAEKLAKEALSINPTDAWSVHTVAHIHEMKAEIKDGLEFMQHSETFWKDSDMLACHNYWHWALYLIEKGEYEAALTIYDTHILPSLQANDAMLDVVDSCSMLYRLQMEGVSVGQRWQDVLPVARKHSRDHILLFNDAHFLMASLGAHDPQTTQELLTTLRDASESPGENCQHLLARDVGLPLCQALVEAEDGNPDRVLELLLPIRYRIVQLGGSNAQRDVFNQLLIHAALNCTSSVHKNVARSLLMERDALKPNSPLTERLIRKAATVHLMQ
T6 sequence (Q96DG6 whole entry): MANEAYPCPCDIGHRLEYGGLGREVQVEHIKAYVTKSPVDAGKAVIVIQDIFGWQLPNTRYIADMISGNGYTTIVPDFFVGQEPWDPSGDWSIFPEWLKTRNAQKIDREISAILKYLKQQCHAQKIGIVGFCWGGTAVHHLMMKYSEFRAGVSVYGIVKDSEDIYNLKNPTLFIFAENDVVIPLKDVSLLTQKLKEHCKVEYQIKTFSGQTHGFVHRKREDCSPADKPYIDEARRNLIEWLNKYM
T12 sequence (Q02318 34-531): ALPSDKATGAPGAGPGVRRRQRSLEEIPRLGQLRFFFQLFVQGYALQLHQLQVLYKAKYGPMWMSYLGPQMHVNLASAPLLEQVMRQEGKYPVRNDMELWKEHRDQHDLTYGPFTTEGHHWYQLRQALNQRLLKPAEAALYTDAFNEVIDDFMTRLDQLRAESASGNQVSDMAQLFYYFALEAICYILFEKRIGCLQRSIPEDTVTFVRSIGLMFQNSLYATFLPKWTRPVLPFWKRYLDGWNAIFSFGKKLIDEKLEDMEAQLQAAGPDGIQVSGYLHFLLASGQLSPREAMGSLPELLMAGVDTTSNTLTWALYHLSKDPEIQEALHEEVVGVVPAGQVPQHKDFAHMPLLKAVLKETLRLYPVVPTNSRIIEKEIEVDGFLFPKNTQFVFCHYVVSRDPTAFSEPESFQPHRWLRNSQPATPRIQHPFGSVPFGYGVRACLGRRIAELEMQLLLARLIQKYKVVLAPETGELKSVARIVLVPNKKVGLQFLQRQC
T5 sequence (P07686 122-556, one chain of several): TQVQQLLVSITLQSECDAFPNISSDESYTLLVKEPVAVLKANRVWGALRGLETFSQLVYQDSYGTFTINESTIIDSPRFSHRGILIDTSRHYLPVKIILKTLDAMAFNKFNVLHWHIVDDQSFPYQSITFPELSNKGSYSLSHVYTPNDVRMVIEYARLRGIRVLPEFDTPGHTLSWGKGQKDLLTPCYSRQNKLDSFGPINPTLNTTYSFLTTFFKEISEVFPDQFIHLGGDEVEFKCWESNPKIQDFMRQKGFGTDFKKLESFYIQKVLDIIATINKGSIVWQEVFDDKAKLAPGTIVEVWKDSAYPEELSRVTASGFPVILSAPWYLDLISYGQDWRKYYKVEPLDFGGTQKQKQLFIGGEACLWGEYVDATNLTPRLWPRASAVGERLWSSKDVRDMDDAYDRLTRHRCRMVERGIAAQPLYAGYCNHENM
T4 sequence (Q8NHP8 42-589): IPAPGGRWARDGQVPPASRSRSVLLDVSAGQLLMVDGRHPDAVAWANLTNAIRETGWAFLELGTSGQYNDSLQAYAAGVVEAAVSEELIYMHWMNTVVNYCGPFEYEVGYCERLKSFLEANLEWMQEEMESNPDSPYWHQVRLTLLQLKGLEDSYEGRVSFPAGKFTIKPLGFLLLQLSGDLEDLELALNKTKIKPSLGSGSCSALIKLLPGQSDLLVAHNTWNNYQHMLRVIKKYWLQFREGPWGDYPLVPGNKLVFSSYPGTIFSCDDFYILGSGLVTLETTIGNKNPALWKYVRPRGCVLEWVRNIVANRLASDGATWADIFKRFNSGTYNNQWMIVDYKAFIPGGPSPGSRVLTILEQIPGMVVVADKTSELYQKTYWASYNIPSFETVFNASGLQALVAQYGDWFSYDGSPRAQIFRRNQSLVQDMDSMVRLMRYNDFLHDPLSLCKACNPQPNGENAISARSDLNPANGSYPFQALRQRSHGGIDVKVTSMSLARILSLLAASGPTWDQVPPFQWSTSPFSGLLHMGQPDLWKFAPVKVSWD

enrichment ratioavg ([1]; probe 2 1 mM 0.5 h vs probe 4): 5 | competition ratioavg ([1]; probe 2 vs probe 2+10x probe 4): 3 | enrichment ratioavg ([2]; probe 2 1 mM 0.5 h vs probe 4): 20 | competition ratioavg ([2]; probe 2 vs probe 2+10x probe 4): 1 | enrichment ratioavg ([3]; probe 2 1 mM 0.5 h vs probe 4): 20 | competition ratioavg ([3]; probe 2 vs probe 2+10x probe 4): 4 | enrichment ratioavg ([4]; probe 2 1 mM 0.5 h vs probe 4): 9 | competition ratioavg ([4]; probe 2 vs probe 2+10x probe 4): 3 | enrichment ratioavg ([5]; probe 2 1 mM 0.5 h vs probe 4): 11 | competition ratioavg ([5]; probe 2 vs probe 2+10x probe 4): 3 | enrichment ratioavg ([6]; probe 2 1 mM 0.5 h vs probe 4): 18 | competition ratioavg ([6]; probe 2 vs probe 2+10x probe 4): 3 | enrichment ratioavg ([7]; probe 2 1 mM 0.5 h vs probe 4): 15 | competition ratioavg ([7]; probe 2 vs probe 2+10x probe 4): 2 | enrichment ratioavg ([8]; probe 2 1 mM 0.5 h vs probe 4): 19 | competition ratioavg ([8]; probe 2 vs probe 2+10x probe 4): 3 | enrichment ratioavg ([9]; probe 2 1 mM 0.5 h vs probe 4): 8 | competition ratioavg ([9]; probe 2 vs probe 2+10x probe 4): 2 | enrichment ratioavg ([10]; probe 2 1 mM 0.5 h vs probe 4): 14 | competition ratioavg ([10]; probe 2 vs probe 2+10x probe 4): 2 | enrichment ratioavg ([11]; probe 2 1 mM 0.5 h vs probe 4): 20 | competition ratioavg ([11]; probe 2 vs probe 2+10x probe 4): 3 | enrichment ratioavg ([12]; probe 2 1 mM 0.5 h vs probe 4): 20 | competition ratioavg ([12]; probe 2 vs probe 2+10x probe 4): 3 | enrichment ratioavg ([13]; probe 2 1 mM 0.5 h vs probe 4): 17 | competition ratioavg ([13]; probe 2 vs probe 2+10x probe 4): 3 | enrichment ratioavg ([14]; probe 2 1 mM 0.5 h vs probe 4): 18 | competition ratioavg ([14]; probe 2 vs probe 2+10x probe 4): 3
SMILES: C#CCCNC(=O)c1ccc(NN)cc1.Cl [probe 2, N-(but-3-yn-1-yl)-4-hydrazinylbenzamide hydrochloride]
